Results: patent US10604489B2, “Compounds for the treatment of pain” (priority 2018, dated 2020)
Structures can show the parent of a compound that is named as a salt.

Key:
[1] = biological target: μ-receptor (Homo sapiens (Human), UniProt P35372); assay: Receptor binding, competitive displacement of [3H]DAMGO; settings: 0.25 nM [3H]DAMGO, CHO cell membrane protein, 60 min at 25° C.
How it was run: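 Ki derived via Cheng-Prusoff from IC50 (log-probit fit) of displacement of 0.25 nM [3H]DAMGO, 12 concentrations, from human μ-receptor in CHO cell membranes. Binding: 50 mM Tris-HCl pH 7.5, 25 °C, 60 min, 10 μM naloxone defining nonspecific, filter-bound radioactivity counted.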

[2] = biological target: human μ opioid receptor (Homo sapiens (Human), UniProt P35372); assay: Functional activity ([35S]GTPγS binding); assay type: biochemical; settings: [35S]GTPγS 0.080 nM, CHO cell membranes, 60 min at 30° C., filtration
How it was run: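 Membranes from stably transfected CHO cells (7.5 μg) incubated with 12 test-compound concentrations and 0.080 nM [35S]GTPγS in 50 mM Tris-HCl pH 7.4, 3 mM MgCl2, 0.2 mM EGTA, 3 μM GDP, 100 mM NaCl, 60 min at 30° C. Nonspecific binding defined with 10 μM GTPγS; bound label collected by filtration and scintillation counting.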

SMILES	Ki [1] [nM]	EC50 [2] [nM]
COC1(c2ccnc(C(N)=O)c2)C2CCCC1CN(CCN1CCCS1(=O)=O)C2 [Compound 88, 4-((1R,5S,9r)-3-(2-(1,1-dioxidoisothiazolidin-2-yl)ethyl)-9-methoxy-3-azabicyclo[3.3.1]nonan-9-yl)picolinamide hydrochloride]	1 to 5	> 75
COC1(c2ccnc(C(N)=O)c2)C2CCCC1CN(C1CC(c3ccccc3)C1)C2 [Compound 89, 4-((1R,5S,9R)-9-methoxy-3-((1s,3S)-3-phenylcyclobutyl)-3-azabicyclo[3.3.1]nonan-9-yl)picolinamide hydrochloride]	< 1	< 10
COC1(c2ccnc(C(N)=O)c2)C2CCCC1CN(C1CCC1)C2 [Compound 90, 4-((1R,5S,9r)-3-cyclobutyl-9-methoxy-3-azabicyclo[3.3.1]nonan-9-yl)picolinamide hydrochloride]	1 to 5	10 to 75
COC1(c2ccnc(C(N)=O)c2)C2CCCC1CN(CC(C)C)C2 [Compound 92, 4-((1R,5S,9r)-3-isobutyl-9-methoxy-3-azabicyclo[3.3.1]nonan-9-yl)picolinamide hydrochloride]	> 5	> 75
COC1(c2ccnc(C(N)=O)c2)C2CCCC1CN([C@@H]1C[C@H]3C[C@H]3C1)C2 (stereo partly drawn) [Compound 93, 4-((1R,5S,9R)-3-((1R,3r,5S)-bicyclo[3.1.0]hexan-3-yl)-9-methoxy-3-azabicyclo[3.3.1]nonan-9-yl)picolinamide hydrochloride]	1 to 5	10 to 75
COC1(c2ccnc(C(N)=O)c2)C2CCCC1CN([C@H]1C[C@H]3C[C@H]3C1)C2 (stereo partly drawn) [Compound 94, 4-((1R,5S,9R)-3-((1R,3s,5S)-bicyclo[3.1.0]hexan-3-yl)-9-methoxy-3-azabicyclo[3.3.1]nonan-9-yl)picolinamide hydrochloride]	< 1	10 to 75
COC1(c2ccc(C(N)=O)s2)C2CCCC1CN(CCN1CCNC1=O)C2 [Compound 95, 5-((1R,5S,9r)-9-methoxy-3-(2-(2-oxoimidazolidin-1-yl)ethyl)-3-azabicyclo[3.3.1]nonan-9-yl)thiophene-2-carboxamide (S)-2-hydroxysuccinate]	1 to 5	> 75
COC1(c2ccc(C(N)=O)s2)C2CCCC1CN(CCN1CCCS1(=O)=O)C2 [Compound 97, 5-((1R,5S,9r)-3-(2-(1,1-dioxidoisothiazolidin-2-yl)ethyl)-9-methoxy-3-azabicyclo[3.3.1]nonan-9-yl)thiophene-2-carboxamide (S)-2-hydroxysuccinate]	< 1	10 to 75
COC1(c2ccc(C(N)=O)s2)C2CCCC1CN(CCN1CCOC1=O)C2 [Compound 98, 5-((1R,5S,9r)-9-methoxy-3-(2-(2-oxooxazolidin-3-yl)ethyl)-3-azabicyclo[3.3.1]nonan-9-yl)thiophene-2-carboxamide (S)-2-hydroxysuccinate]	> 5	10 to 75
COC1(c2ccnc(C(N)=O)c2)C2CCCC1CN(Cc1ncc[nH]1)C2 [Compound 99, 4-((1R,5S,9r)-3-((1H-imidazol-2-yl)methyl)-9-methoxy-3-azabicyclo[3.3.1]nonan-9-yl)picolinamide hydrochloride]	1 to 5	10 to 75
COC1(c2ccnc(C(N)=O)c2)C2CCCC1CN(Cc1ccn[nH]1)C2 [Compound 100, 4-((1R,5S,9r)-3-((1H-pyrazol-5-yl)methyl)-9-methoxy-3-azabicyclo[3.3.1]nonan-9-yl)picolinamide hydrochloride]	< 1	10 to 75
COC1(c2ccc(C(N)=O)s2)C2CCCC1CN(C1CCCCC1)C2 [Compound 101, 5-((1R,5S,9r)-3-cyclohexyl-9-methoxy-3-azabicyclo[3.3.1]nonan-9-yl)thiophene-2-carboxamide hydrochloride]	1 to 5	> 75
COC1(c2ccnc(C(N)=O)c2)C2CCCC1CN(C[C@H]1C[C@@H]3C[C@@H]3C1)C2 (stereo partly drawn) [Compound 102, 4-((1R,5S,9R)-3-((1R,3r,5S)-bicyclo[3.1.0]hexan-3-ylmethyl)-9-methoxy-3-azabicyclo[3.3.1]nonan-9-yl)picolinamide hydrochloride]	< 1	10 to 75
COC1(c2ccnc(C(N)=O)c2)C2CCCC1CN(C13CC(C1)C3)C2 [Compound 103, 4-((1R,5S,9r)-3-(bicyclo[1.1.1]pentan-1-yl)-9-methoxy-3-azabicyclo[3.3.1]nonan-9-yl)picolinamide hydrochloride]	1 to 5	> 75
COC1(c2ccnc(C(N)=O)c2)C2CCCC1CN(C13CC(c4ccccc4)(C1)C3)C2 [Compound 106, 4-((1R,5S,9r)-9-methoxy-3-(3-phenylbicyclo[1.1.1]pentan-1-yl)-3-azabicyclo[3.3.1]nonan-9-yl)picolinamide hydrochloride]	< 1	< 10
COC1(c2ccnc(C(N)=O)c2)C2CCCC1CN(C(C)(C)C)C2 [Compound 107, 4-((1R,5S,9r)-3-(tert-butyl)-9-methoxy-3-azabicyclo[3.3.1]nonan-9-yl)picolinamide hydrochloride]	1 to 5	> 75
COC1(c2ccnc(C(N)=O)c2)C2CCCC1CN([C@@H]1CC[C@H]1c1ccccc1)C2 (stereo partly drawn) [Compound 109, 4-((1R,5S,9R)-9-methoxy-3-((1R,2S)-2-phenylcyclobutyl)-3-azabicyclo[3.3.1]nonan-9-yl)picolinamide hydrochloride]	< 1	< 10
COC1(c2ccnc(C(N)=O)c2)C2CCCC1CN(C1CCCOC1)C2 [Compound 111, 4-((1R,5S,9r)-9-methoxy-3-(tetrahydro-2H-pyran-3-yl)-3-azabicyclo[3.3.1]nonan-9-yl)picolinamide hydrochloride]	> 5	> 75
COC1(c2ccc(C(N)=O)s2)C2CCCC1CN(C13CC(C1)C3)C2 [Compound 112, 5-((1R,5S,9r)-3-(bicyclo[1.1.1]pentan-1-yl)-9-methoxy-3-azabicyclo[3.3.1]nonan-9-yl)thiophene-2-carboxamide hydrochloride]	1 to 5	> 75
COC1(c2ccnc(C(N)=O)c2)C2CCCC1CN(Cc1ncco1)C2 [Compound 113, 4-((1R,5S,9r)-9-methoxy-3-(oxazol-2-ylmethyl)-3-azabicyclo[3.3.1]nonan-9-yl)picolinamide hydrochloride]	> 5	> 75
COC1(c2ccc(C(N)=O)s2)C2CCCC1CN(C1CN(C(C)=O)C1)C2 [Compound 114, 5-((1R,5S,9r)-3-(1-acetylazetidin-3-yl)-9-methoxy-3-azabicyclo[3.3.1]nonan-9-yl)thiophene-2-carboxamide hydrochloride]	> 5	> 75
COC1(c2ccnc(C(N)=O)c2)C2CCCC1CN(Cc1cnco1)C2 (stereo not drawn) [Compound 115, hydrochloride]	1 to 5	10 to 75
COC1(c2ccnc(C(N)=O)c2)C2CCCC1CN([C@H]1CC[C@@H]1c1ccccc1)C2 (stereo partly drawn) [Compound 117, 4-((1R,5S,9s)-9-methoxy-3-((1S,2R)-2-phenylcyclobutyl)-3-azabicyclo[3.3.1]nonan-9-yl)picolinamide hydrochloride]	1 to 5	10 to 75
CCCC(C)N1CC2CCCC(C1)C2(OC)c1ccnc(C(N)=O)c1 [Compound 118, 4-((1R,5S,9r)-9-methoxy-3-(pentan-2-yl)-3-azabicyclo[3.3.1]nonan-9-yl)picolinamide hydrochloride]	1 to 5	10 to 75
COC1(c2ccnc(C(N)=O)c2)C2CCCC1CN(Cc1cncn1C)C2 [Compound 121, 4-((1R,5S,9r)-9-methoxy-3-((1-methyl-1H-imidazol-5-yl)methyl)-3-azabicyclo[3.3.1]nonan-9-yl)picolinamide hydrochloride]	1 to 5	> 75
COC1(c2ccnc(C(N)=O)c2)C2CCCC1CN(Cc1ccno1)C2 [Compound 124, 4-((1R,5S,9r)-3-(isoxazol-5-ylmethyl)-9-methoxy-3-azabicyclo[3.3.1]nonan-9-yl)picolinamide hydrochloride]	> 5	> 75
COC1(c2cccc(C(N)=O)c2)C2CCCC1CN(C1CC3(CCC3)C1)C2 [Compound 129, 3-((1R,5S,9r)-9-methoxy-3-(spiro[3.3]heptan-2-yl)-3-azabicyclo[3.3.1]nonan-9-yl)benzamide hydrochloride]	< 1	< 10
COC1(c2ccnc(C(N)=O)c2)C2CCCC1CN([C@H]1C[C@@H](C)C1)C2 (stereo partly drawn) [Compound 130, 4-((1R,5S,9R)-9-methoxy-3-((1s,3S)-3-methylcyclobutyl)-3-azabicyclo[3.3.1]nonan-9-yl)picolinamide hydrochloride]	< 1	10 to 75
COC1(c2ccnc(C(N)=O)c2)C2CCCC1CN([C@H]1C[C@H](C)C1)C2 (stereo partly drawn) [Compound 131, 4-((1R,5S,9R)-9-methoxy-3-((1r,3R)-3-methylcyclobutyl)-3-azabicyclo[3.3.1]nonan-9-yl)picolinamide hydrochloride]	1 to 5	10 to 75
COC1(c2ccnc(C(N)=O)c2)C2CCCC1CN([C@H]1CCCOC1)C2 (stereo partly drawn) [Compound 132, 4-((1R,5S,9s)-9-methoxy-3-((S)-tetrahydro-2H-pyran-3-yl)-3-azabicyclo[3.3.1]nonan-9-yl)picolinamide hydrochloride]	1 to 5	> 75
